Laboratory results published in paper PMC12977544, “Phenotypic high-throughput screening identifies modulators of gut microbial choline metabolism” (mBio, 2026).

Legend:
[1] = system: Hungatella hathewayi cultures; design: method as in PMID 31059309; details: cited from earlier work
[2] = system: choline transporters; design: method as in PMID 33271015; details: read-out: IC50 of choline transport in human cells that overexpress choline transporters; cited from earlier work
[3] = system: cut gene cluster expression in E. coli MS 200-1; test: Transcription of the cut gene cluster after choline induction (Nanostring nCounter); details: 10 µM, NCE glycerol, 1 mM choline induction, 1.5 h
[4] = molecular target: T1, purified CutC (choline trimethylamine-lyase) (Oleidesulfovibrio alaskensis, UniProt Q30W70); test: In vitro CutC activity assay coupled to YADH/NADH (absorbance 340 nm); assay type: biochemical, Desulfovibrio desulfuricans G20; details: 5 nM CutC, 200 µM choline, 20°C, anaerobic
T1 construct: made in house
Method: To investigate if our compounds were inhibiting CutC directly, we tested their activity toward the purified enzyme. The activity of CutC was determined using a coupled enzyme assay, where the acetaldehyde product from the cleavage of choline to TMA is reduced to ethanol by yeast alcohol dehydrogenase (YADH) using nicotinamide adenine dinucleotide (NADH) as a cofactor. The consumption of NADH results in a change in absorption at 340 nm, and this rate of change of absorption was used to calculate the initial rates of reaction of CutC in the presence of varying concentrations of inhibitors ([14], [65]).
CutC and CutD enzymes from Desulfovibrio desulfuricans G20 were purified, CutC was activated by incubation with CutD, and the amount of glycyl radical installation was quantified as previously described ([15]). The IC50 of compounds was determined in an in vitro CutC activity assay, where CutC activity is coupled to the NADH-dependent enzymatic reduction of acetaldehyde by YADH ([15]). Briefly, assays were conducted in an anaerobic chamber (MBraun) under N2 atmosphere at 20°C. In 50 mM potassium phosphate buffer (pH 8.0, 50 mM KCl), 40 µM of CutD and 150 µM of sodium dithionite were incubated for 20 min before the addition of 200 µM of SAM and 20 µM of CutC monomer. The mixture was incubated for 1 h to activate the glycyl radical enzyme, after which the activated CutC mixture was diluted […] in 50 mM potassium phosphate buffer (pH 8.0, 50 mM KCl). A master mix containing 200 µM NADH, 0.4 µM YADH (Sigma), and the diluted CutC mixture (5 nM final concentration in assay) was prepared and aliquoted into 96-well plates (180 µL per well). Ten microliters of inhibitor or DMSO vehicle was added, followed by 10 µL of aqueous choline chloride solution (final concentration 200 µM). Absorbance was measured at 340 nm immediately after addition of all assay components, with measurements taken every 20 s for 10 min. Initial rates were calculated from absorbance measurements and fitted to Michaelis–Menten equation using nonlinear regression in GraphPad Prism 10 (v. 10.4.0). Background activity was subtracted using no substrate controls, and initial rates for each inhibitor concentration were normalized to no inhibitor controls. IC50 values were obtained by plotting normalized activity values against the logarithm of inhibitor concentration and fitting to a nonlinear regression model in GraphPad Prism 10 (v. 10.4.0).

[5] = system: E. coli MS 200-1; test: Growth inhibition of E. coli cultures in choline- and glycerol-containing minimal media; assay type: cell-based, Escherichia coli MS 200-1
Method: To validate the potential hits from the HTS, we tested the 178 compounds for inhibition of growth of E. coli MS 200-1 in glycerol minimal media at 30 µg/mL, following up with those without activity. […]. We then determined EC50 values for inhibition of TMA production from choline by bacterial cultures incubated with [trimethyl-d9]choline in phosphate-buffered saline. Of the 178 compounds tested in both growth and TMA inhibition assays, 20 inhibited TMA generation by E. coli MS 200-1 without growth-inhibitory effects in glycerol minimal medium.
NCE media was adapted based on the “no carbon E” media as previously described ([14]), and contains 29 mM potassium phosphate monobasic, 29 mM potassium phosphate dibasic, 17 mM ammonium sodium phosphate dibasic, 40 mM sodium fumarate dibasic, 0.1% (wt/vol) casamino acids, and either 20 mM choline chloride or 3 g/L glycerol. This mixture was supplemented with 1 mM magnesium sulfate, 1% ATCC vitamin supplement, and 1% ATCC trace mineral supplement.

[6] = system: choline transport into ∆cutC E. coli MS 200-1 cells; test: [14C]-choline uptake; assay type: cell-based, Escherichia coli MS 200-1 ∆cutC; details: 10 µM
Method: The ∆cutC strain of E. coli was used in this assay to prevent the formation of volatile radioactive TMA. When cells were grown aerobically, incubation with compound 42 increased choline uptake by 15 times compared to vehicle treatment (Fig. S2B).
E. coli MS 200-1 ∆cutC was grown either aerobically or anaerobically in LB medium supplemented with 1 mM choline chloride. Cells were pelleted and resuspended in fresh PBS after overnight growth to OD600 of 1 and aliquoted into microcentrifuge tubes. […] 5 µM [^14C] choline was added to the cells and left to incubate for 15 mins aerobically. At the end of the incubation period, cells were washed with PBS three times by centrifugation at 3,000 × g for 5 min and resuspended in equal volume of PBS. The resulting cell resuspension in PBS was transferred to a scintillation vial, where 10 mL of liquid scintillation cocktail was added and mixed. Radioactivity was counted using a Beckman Coulter LS6000 liquid scintillation counter for 1 min per sample.

[7] = system: TMAO production in vivo; design: method as in PMID 30082863; details: cited from earlier work
[8] = system: Proteus mirabilis lysates; design: method as in PMID 30082863; details: read-out: IC50 against Proteus mirabilis lysates; cited from earlier work
[9] = cited from earlier work
[10] = system: high affinity choline transporter (HAChT), choline transport in rat synaptosomes; design: method as in PMID 2066974; details: cited from earlier work

T1 sequence (Q30W70 53-846): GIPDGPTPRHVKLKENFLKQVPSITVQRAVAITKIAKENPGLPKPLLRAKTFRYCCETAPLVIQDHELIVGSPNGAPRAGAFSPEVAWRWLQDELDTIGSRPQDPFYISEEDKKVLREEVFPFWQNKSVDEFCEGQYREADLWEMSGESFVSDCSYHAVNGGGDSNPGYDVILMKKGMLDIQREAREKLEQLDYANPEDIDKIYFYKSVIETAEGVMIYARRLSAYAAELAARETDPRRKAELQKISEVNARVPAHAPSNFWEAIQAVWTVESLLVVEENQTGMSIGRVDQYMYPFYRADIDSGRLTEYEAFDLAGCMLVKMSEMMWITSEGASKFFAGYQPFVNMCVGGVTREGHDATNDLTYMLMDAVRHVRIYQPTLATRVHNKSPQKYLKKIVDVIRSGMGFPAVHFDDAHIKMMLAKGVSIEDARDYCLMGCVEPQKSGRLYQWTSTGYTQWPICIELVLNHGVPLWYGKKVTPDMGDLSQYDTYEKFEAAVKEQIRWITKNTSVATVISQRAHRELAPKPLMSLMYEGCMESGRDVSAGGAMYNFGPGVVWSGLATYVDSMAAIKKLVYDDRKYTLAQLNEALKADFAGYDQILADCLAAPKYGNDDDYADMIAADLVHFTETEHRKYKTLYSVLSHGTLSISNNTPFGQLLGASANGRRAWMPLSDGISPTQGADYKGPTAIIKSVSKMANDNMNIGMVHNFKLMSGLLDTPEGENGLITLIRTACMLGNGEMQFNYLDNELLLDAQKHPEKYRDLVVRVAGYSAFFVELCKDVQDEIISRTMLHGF

Structure (SMILES): C[N+](C)(CCO)CCCCCCOc1cccc(I)c1 [Compound 4]
- IC50 [1]: 15000 nM
- IC50 [2]: 44 nM

Structure (SMILES): Cc1ccc(-c2cc(C(=O)NCCCN3CCCCCC3)c(C)[nH]2)cc1C [Compound 42]
- Effect on cut gene cluster expression vs DMSO control [3]: did not significantly change gene expression
- IC50 [4]: 24000 nM
- Inhibition of E. coli growth on choline ([5]; choline minimal medium, 7 h, 6: 125–500 µM, 42: 30–100 µM): dose-dependent
- Effect on growth of E. coli MS 200-1 in glycerol medium ([5]; glycerol NCE minimal medium): not observed in glycerol
- Increase of choline uptake compared to vehicle ([6]; cells grown aerobically): 15 times
- Increase of choline uptake compared to vehicle ([6]; cells grown anaerobically): 1.2 times

Structure (SMILES): C[N+](C)(CF)CCO [FMC, fluoromethylcholine]
- EC50 of inhibition of TMAO production in vivo [7]: 3.4 mg/kg

Structure (SMILES): C[N+](C)(CI)CCO [IMC, Iodomethylcholine]
- IC50 [8]: 1.5 nM
- Concentration in mice cecum and colon samples ([9]; dosed at 100 mg/kg, after 24 h): around 6 mM
- Level of inhibitor and its metabolite iodomethylbetaine in serum ([9]; mouse, in vivo): low micromolar levels
- EC50 of inhibition of TMAO production in vivo [7]: 45 mg/kg
- IC50 [10]: 490 nM
